Test results from BindingDB's records for doi:10.1016/j.bmcl.2019.02.034 (Wroclaw University of Technology, 2019).
Where a SMILES comes first, the peptide text is derived from it. The star is where a group is joined. X1 = CC(C)CC(CP(=O)(O)[C@@H](N)CCc1ccccc1)C(=O)*

These compounds were tested against Leucyl-cystinyl aminopeptidase (Homo sapiens) (UniProt Q9UIQ6) (assay: Inhibition of human IRAP using L-leucine 7-amido-4-methyl coumarin substrate by microplate fluorescence reader based assay).
Sequence of Leucyl-cystinyl aminopeptidase (Homo sapiens) (Q9UIQ6 whole entry, looked up): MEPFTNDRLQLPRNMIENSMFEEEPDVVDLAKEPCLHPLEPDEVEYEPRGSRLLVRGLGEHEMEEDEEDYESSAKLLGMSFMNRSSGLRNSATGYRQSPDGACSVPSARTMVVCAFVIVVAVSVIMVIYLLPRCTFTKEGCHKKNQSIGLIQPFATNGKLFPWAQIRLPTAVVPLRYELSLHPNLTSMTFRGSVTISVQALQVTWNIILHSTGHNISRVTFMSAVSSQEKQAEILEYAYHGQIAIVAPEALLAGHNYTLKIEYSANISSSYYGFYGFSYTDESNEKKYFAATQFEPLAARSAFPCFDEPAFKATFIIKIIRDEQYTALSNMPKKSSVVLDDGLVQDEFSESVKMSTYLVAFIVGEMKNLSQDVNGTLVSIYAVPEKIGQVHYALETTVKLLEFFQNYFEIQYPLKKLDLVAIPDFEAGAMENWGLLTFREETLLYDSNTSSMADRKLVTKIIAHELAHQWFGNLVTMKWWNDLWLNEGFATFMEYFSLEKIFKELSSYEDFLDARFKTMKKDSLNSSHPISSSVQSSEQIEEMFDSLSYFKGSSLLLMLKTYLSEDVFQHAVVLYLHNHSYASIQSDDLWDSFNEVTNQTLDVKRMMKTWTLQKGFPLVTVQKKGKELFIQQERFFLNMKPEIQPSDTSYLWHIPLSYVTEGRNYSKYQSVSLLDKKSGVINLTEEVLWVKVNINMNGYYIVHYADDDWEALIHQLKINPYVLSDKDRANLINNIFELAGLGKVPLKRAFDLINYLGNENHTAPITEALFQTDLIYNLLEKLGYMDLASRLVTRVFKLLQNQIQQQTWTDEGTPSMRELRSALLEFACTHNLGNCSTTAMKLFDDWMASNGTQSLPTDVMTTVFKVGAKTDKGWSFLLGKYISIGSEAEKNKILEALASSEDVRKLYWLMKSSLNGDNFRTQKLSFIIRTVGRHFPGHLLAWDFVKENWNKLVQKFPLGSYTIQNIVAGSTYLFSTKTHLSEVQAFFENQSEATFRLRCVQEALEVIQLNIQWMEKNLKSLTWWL
`C#CC[C@H](CP(=O)(O)[C@@H](N)CCc1ccccc1)C(=O)N[C@@H](Cc1ccccc1)C(N)=O` was tested, and the IC50 was 2 nM.
In the case of `NC(=O)[C@H](Cc1ccccc1)NC(=O)[C@H](CCC(c1ccccc1)c1ccccc1)CP(=O)(O)[C@@H](N)CCc1ccccc1`, the IC50 is reported as 32 nM.
In the case of `CC(C)CC(CP(=O)(O)[C@@H](N)CCc1ccccc1)C(=O)N[C@@H](CCCCN)C(=O)N[C@@H](Cc1cnc[nH]1)C(=O)N[C@@H](Cc1cnc[nH]1)C(=O)N[C@@H](C)C(=O)N[C@@H](Cc1ccccc1)C(=O)N[C@@H](CO)C(=O)N[C@@H](Cc1ccccc1)C(=O)N[C@@H](CCCCN)C(N)=O` (stereo partly drawn) (X1-KHHAFSFK-NH2), the IC50 is reported as 7.7 nM.
